This note sets out measurements from PubChem BioAssay (NCI).

Test systems include HS 578T breast; HOP-62 NSCLC; NCI-H522 lung; OVCAR-4 ovarian; UACC-62 melanoma; T-47D breast; SK-MEL-5 melanoma; NCI/ADR-RES ovarian; HL-60(TB) leukemia; SF-539 CNS.
Common to all, as to experiment: NCI anticancer screen, dose series, 48 h

Each structure is given as a SMILES string. Where “and” joins values, the source holds several entries; their conditions need not be identical. Identical values can stand only once.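 48-hour exposure; five concentrations; linearly interpolated endpoints. Here, GI50 denotes the concentration required for 50% inhibition of growth. TGI is the concentration that stops growth completely.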

In the case of `Cc1cc[c]([Sb]2[O]C(CO)C(C(O)C(O)C(=O)O)[O]2)cc1` (configuration not stated), the GI50 in the test on HS 578T breast was 87.7 µM; with HOP-62 NSCLC, 45.2 µM; in the test on NCI-H522 lung it was 42.7 µM; in the test with OVCAR-4 ovarian it was above 100 µM; with UACC-62 melanoma, above 100 µM; in the test on T-47D breast, above 100 µM. Besides, the GI50 with SK-MEL-5 melanoma and with NCI/ADR-RES ovarian was above 100 µM each time. For the same compound, the TGI in the test with HS 578T breast, with HOP-62 NSCLC, in the test on NCI-H522 lung, in the test with OVCAR-4 ovarian, with UACC-62 melanoma and in the test on T-47D breast was above 100 µM each time. In addition, the TGI with SK-MEL-5 melanoma and in the test on NCI/ADR-RES ovarian was above 100 µM each time.

In the case of `COc1ccc2c(c1)c(-c1ccc(-c3cn(C)c4ccc(OC)cc34)s1)cn2C`, the GI50 was above 100 µM in the test with HS 578T breast; above 100 µM in the test on HOP-62 NSCLC; above 100 µM with HL-60(TB) leukemia; above 100 µM in the test on SF-539 CNS; above 100 µM with NCI-H522 lung; 90.2 µM in the test on OVCAR-4 ovarian. For the same compound, the GI50 with UACC-62 melanoma, in the test on SK-MEL-5 melanoma and with NCI/ADR-RES ovarian was above 100 µM throughout. The TGI with HS 578T breast, in the test with HOP-62 NSCLC, in the test with HL-60(TB) leukemia, with SF-539 CNS, with NCI-H522 lung and in the test with OVCAR-4 ovarian was above 100 µM throughout. Moreover, the TGI with UACC-62 melanoma, in the test with SK-MEL-5 melanoma and in the test on NCI/ADR-RES ovarian was above 100 µM throughout.

In the case of `COc1ccc(CC(C)NCC(O)c2ccc(O)c(NC=O)c2)cc1` (configuration not stated), the TGI in the test on HS 578T breast, in the test with HOP-62 NSCLC, in the test on SF-539 CNS, in the test on NCI-H522 lung, with OVCAR-4 ovarian and with UACC-62 melanoma was above 100 µM throughout. Also, the TGI in the test with T-47D breast, in the test with SK-MEL-5 melanoma and with NCI/ADR-RES ovarian was above 100 µM in each case.

Consider `CC(NC(=O)c1ccc(Cl)c(Cl)c1)c1ccc(-c2ccccc2)cc1` (configuration not stated), for which the TGI was 65.1 µM in the test with HS 578T breast; 54.5 µM in the test with HOP-62 NSCLC; above 100 µM in the test with HL-60(TB) leukemia; 42.9 µM in the test on SF-539 CNS; above 100 µM with NCI-H522 lung; 37.7 µM in the test with OVCAR-4 ovarian. The TGI in the test on UACC-62 melanoma, in the test with SK-MEL-5 melanoma and in the test with NCI/ADR-RES ovarian was above 100 µM throughout.

As for `[Cu].c1ccc2c(c1)C1=NC2=NC2=NC(=NC3=NC(=NC4=NC(=N1)c1ccccc14)c1ccccc13)c1ccccc12`, the GI50 in the test on HS 578T breast, in the test with HOP-62 NSCLC, with NCI-H522 lung, with OVCAR-4 ovarian, with UACC-62 melanoma and in the test on T-47D breast was above 100 µM each time. Moreover, the GI50 in the test with SK-MEL-5 melanoma and with NCI/ADR-RES ovarian was above 100 µM throughout. For the same compound, the TGI in the test with HS 578T breast, in the test with HOP-62 NSCLC, in the test on NCI-H522 lung, in the test on OVCAR-4 ovarian, in the test on UACC-62 melanoma and in the test on T-47D breast was above 100 µM throughout. The TGI in the test on SK-MEL-5 melanoma and with NCI/ADR-RES ovarian was above 100 µM each time.

`O=c1cc(-c2cccc(Cl)c2)[nH]c2cc3c(cc12)OCO3`: the TGI was 1.74 µM in the test with HS 578T breast; 2.85 µM with HOP-62 NSCLC; 7.5 µM and 1.39 µM with HL-60(TB) leukemia; 1.08 µM and 1.56 µM in the test on SF-539 CNS; 2.8 µM in the test with NCI-H522 lung; above 100 µM in the test with OVCAR-4 ovarian. For the same compound, the TGI in the test on UACC-62 melanoma worked out at 0.556 µM; in the test with T-47D breast, 65.3 µM. Besides, the GI50 in the test on HL-60(TB) leukemia was 0.263 µM; with SF-539 CNS, 0.288 µM; in the test with OVCAR-4 ovarian, 43 µM; with SK-MEL-5 melanoma, 0.164 µM.

`Clc1ccc2c(NC3CCC(NC4CCCCC4)CC3)ccnc2c1` (configuration not stated): the GI50 in the test with SF-539 CNS was 2.03 µM; with NCI-H522 lung, 3.37 µM; in the test with OVCAR-4 ovarian, 6.48 µM; in the test on UACC-62 melanoma, 3.26 µM; with T-47D breast, 3.42 µM; in the test with SK-MEL-5 melanoma, 1.77 µM. Also, the GI50 with NCI/ADR-RES ovarian is 8.48 µM. For the same compound, the TGI in the test on SF-539 CNS came out at 4.13 µM; with NCI-H522 lung it was 14 µM; in the test with OVCAR-4 ovarian, 41 µM; with UACC-62 melanoma, 12.5 µM; with T-47D breast, 17.7 µM; in the test on SK-MEL-5 melanoma, 3.2 µM. The compound further yielded a TGI in the test with NCI/ADR-RES ovarian of 30.4 µM.

For `Cc1cc2c(cc1Cl)SC(=Nc1ccc(Cl)cc1)N(S(=O)(=O)c1ccc(Br)s1)S2(=O)=O`, the GI50 with HS 578T breast is 25.3 µM; with HOP-62 NSCLC it was 17.8 µM; with HL-60(TB) leukemia it was 22.4 µM; in the test on SF-539 CNS it was 2.01 µM; with NCI-H522 lung it was 37.3 µM; with OVCAR-4 ovarian, 18.4 µM. The values for the GI50 in the test with UACC-62 melanoma, in the test on SK-MEL-5 melanoma and in the test on NCI/ADR-RES ovarian were 12 µM, 13.7 µM and 12.2 µM, respectively. Besides, the TGI in the test with HS 578T breast was 62.2 µM; with HOP-62 NSCLC, 37.4 µM; with HL-60(TB) leukemia it was 46.8 µM; in the test on SF-539 CNS it was 9.93 µM; with NCI-H522 lung it was above 100 µM; in the test with OVCAR-4 ovarian it was 66.3 µM. In addition, the TGI in the test with UACC-62 melanoma was 25.3 µM; with SK-MEL-5 melanoma, 43.3 µM; in the test with NCI/ADR-RES ovarian, 26.5 µM.
